According to US4777143A, “Method of detecting carboxylic acids in a specimen” (priority 1986, dated 1988):
Like-named read-outs stand apart in the source and are kept apart here.

Experiments:
[1] = Guaiac solubility in solvents / reagent solubility in water
Procedure: Color developing reagent was prepared as follows. […] Four ml of a given solvent as indicated in Table 2 were added and the guaiac was allowed to dissolve to the extent possible.
Subsequently, 48 μl of 80% cumene hydroperoxide was added to each tube (except to that containing the water-only sample) to make a complete color developing reagent (solvent, chromogen, oxidant) for testing.

[2] = Water miscibility of solvents; format: physicochemical; parameters: key: -: Where phase separation was visible; +: otherwise; details: 0.5 ml water + 0.5 ml solvent
Procedure: Various solvents were tested for their utility with regard to (1) water miscibility, (2) guaiac solubility and (3) color development. Water miscibility was evaluated by admixing 0.5 ml of water with 0.5 ml each solvent, and noting any phase separation. Where phase separation was visible, a "-" appears in Table 2; otherwise, a "+" appears.

Row | Compound | GUAIAC SOLUBILITY ([1]; noted visually) | WATER MISCIBILITY [2] | GUAIAC SOLUBILITY [1] | solubility of cumene hydroperoxide in water ([1]; water)
1 | CC(Cl)(Cl)Cl [1,1,1-trichloroethane] | ++ | - |  | 
2 | CC(C)c1ccc(CO)cc1 [4-Isopropyl-Benzyl Alcohol] | +++ | - |  | 
3 | CC(=O)CC(C)(C)O [4-hydroxy, 4 methyl-pentanone] |  |  | +++ | 
4 | CC(C)=O [Acetone] | +++ | + |  | 
5 | OCc1ccccc1 [Benzyl Alcohol] |  | - | +++ | 
6 | CC(C)c1ccccc1 [Cumene] | + | - |  | 
7 | ClCCl [Dichloromethane] | ++ | - |  | 
8 | CCO [Ethanol] |  | + | +++ | 
9 | CCOC(C)=O [Ethyl Acetate] | ++ | - |  | 
10 | OCCO [Ethylene Glycol] | +++ | + |  | 
11 | CC(C)O [Isopropanol] | +++ | + |  | 
12 | CCC(C)=O [Methyl Ethyl Ketone] |  | + |  | 
13 | COC(=O)CC(C)=O [Methyl-Acetoacetate] | +++ | + |  | 
14 | CCCCCCCCOC(C)=O [Octyl Acetate] |  | - | ++ | 
15 | Cc1ccccc1 [Toluene] |  | - |  | 
16 | CC(C)(OO)c1ccccc1 [cumene hydroperoxide, reference compound] |  |  |  | essentially insoluble in water
17 | CCCCCCCO [n-Heptanol] | +++ | - |  | 
18 | CCCCCCO [n-Hexanol] |  | - |  | 
19 | CCCCCCCC [n-Octane] | - | - |  | 
20 | CCCCCCCCO [n-Octanol] |  | - | +++ | 
21 | CCCCCO [n-Pentanol] |  | - | +++ | 
22 | Hexanes |  | - | - | 
